Data reported in patent publication US10040759B2, “Substituted azetidinyl compounds as GlyT1 inhibitors” (DART NEUROSCIENCE (CAYMAN) LTD., priority 2014, dated 2018).

Target: T1, GlyT1 (Homo sapiens, UniProt P48067)
T1 construct: expressed in transfected cells
T1 sequence (P48067 1-706): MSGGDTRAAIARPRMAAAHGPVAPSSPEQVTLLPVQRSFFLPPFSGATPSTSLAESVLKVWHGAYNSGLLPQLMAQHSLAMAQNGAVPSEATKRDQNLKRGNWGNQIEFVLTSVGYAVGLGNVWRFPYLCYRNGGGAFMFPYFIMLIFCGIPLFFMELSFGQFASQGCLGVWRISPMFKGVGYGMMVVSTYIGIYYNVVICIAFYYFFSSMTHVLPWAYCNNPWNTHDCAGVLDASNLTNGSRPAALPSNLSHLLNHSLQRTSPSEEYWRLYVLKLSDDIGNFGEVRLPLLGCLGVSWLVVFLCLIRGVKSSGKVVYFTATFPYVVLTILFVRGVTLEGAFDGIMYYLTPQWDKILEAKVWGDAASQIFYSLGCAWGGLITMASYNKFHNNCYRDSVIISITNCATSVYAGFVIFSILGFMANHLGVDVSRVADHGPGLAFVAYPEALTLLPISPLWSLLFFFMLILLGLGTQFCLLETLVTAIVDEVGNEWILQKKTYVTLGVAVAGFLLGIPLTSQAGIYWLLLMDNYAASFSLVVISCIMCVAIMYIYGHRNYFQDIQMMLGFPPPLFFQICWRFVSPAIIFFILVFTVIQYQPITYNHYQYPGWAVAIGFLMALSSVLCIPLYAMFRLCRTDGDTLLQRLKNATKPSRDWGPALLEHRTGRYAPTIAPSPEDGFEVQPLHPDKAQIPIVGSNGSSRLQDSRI
Assay: Glycine Transporter 1 (GlyT1) uptake assay, scintillation proximity assay of [14C]-glycine uptake
Assay type: cell-based
Conditions: [14C]-glycine uptake; read-out: GlyT1 (pIC50) (converted)
How it was run: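 IC50 values were derived by four-parameter logistic fitting of counts. The 2× compound solutions were made by 1:100 dilution into HBSS of DMSO serial dilutions.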

| Compound | IC50 [nM] |
| --- | --- |
| CC(Oc1ccc(C#N)c(Cl)c1C(=O)N1CC(c2cccc(C(F)(F)F)c2)C1)C(F)(F)F (stereo not drawn) [Example 85, 2-Chloro-3-({3-[3-(trifluoromethyl)phenyl]azetidin-1-yl}carbonyl)-4-[(1,1,1-trifluoropropan-2-yl)oxy]benzonitrile] | 100 to 1000 |
| CC(Oc1ccc(C#N)c(Cl)c1C(=O)N1CC(c2ccc(F)cc2)C1)C(F)(F)F (stereo not drawn) [Example 86, 2-Chloro-3-{[3-(4-fluorophenyl)azetidin-1-yl]carbonyl}-4-[(1,1,1-trifluoropropan-2-yl)oxy]benzonitrile] | 100 to 1000 |
| CC(Oc1ccc(C#N)c(Cl)c1C(=O)N1CC(c2ccccc2F)C1)C(F)(F)F (stereo not drawn) [Example 87, 2-Chloro-3-{[3-(2-fluorophenyl)azetidin-1-yl]carbonyl}-4-[(1,1,1-trifluoropropan-2-yl)oxy]benzonitrile] | 100 to 1000 |
| CC(Oc1ccc(C#N)c(Cl)c1C(=O)N1CC(c2ccccn2)C1)C(F)(F)F (stereo not drawn) [Example 88, 2-Chloro-3-{[3-(pyridin-2-yl)azetidin-1-yl]carbonyl}-4-[(1,1,1-trifluoropropan-2-yl)oxy]benzonitrile] | 100 to 1000 |
| COc1ccc(OC2CN(C(=O)c3c(OC(C)C(F)(F)F)ccc(C#N)c3Cl)C2)cc1 (stereo not drawn) [Example 89, 2-Chloro-3-{[3-(4-methoxyphenoxy)azetidin-1-yl]carbonyl}-4-[(1,1,1-trifluoropropan-2-yl)oxy]benzonitrile] | < 100 |
| COc1c(C#N)ccc(OC(C)C(F)(F)F)c1C(=O)N1CC(c2ccccc2C(F)(F)F)C1 (stereo not drawn) [Example 90, 2-Methoxy-3-({3-[2-(trifluoromethyl)phenyl]azetidin-1-yl}carbonyl)-4-[(1,1,1-trifluoropropan-2-yl)oxy]benzonitrile] | < 100 |
| COc1c(C#N)ccc(OC(C)C(F)(F)F)c1C(=O)N1CC(c2ccccn2)C1 (stereo not drawn) [Example 93, 2-Methoxy-3-{[3-(pyridin-2-yl)azetidin-1-yl]carbonyl}-4-[(1,1,1-trifluoropropan-2-yl)oxy]benzonitrile] | < 100 |
| COc1ccc(OC2CN(C(=O)c3c(OC(C)C(F)(F)F)ccc(C#N)c3OC)C2)cc1 (stereo not drawn) [Example 94, 2-Methoxy-3-{[3-(4-methoxyphenoxy)azetidin-1-yl]carbonyl}-4-[(1,1,1-trifluoropropan-2-yl)oxy]benzonitrile] | > 10000 |
| COc1c(C#N)ccc(OC(C)C(F)(F)F)c1C(=O)N1CC(c2cccc(C(F)(F)F)c2)C1 (stereo not drawn) [Example 99, 2-Methoxy-3-({3-[3-(trifluoromethyl)phenyl]azetidin-1-yl}carbonyl)-4-[(1,1,1-trifluoropropan-2-yl)oxy]benzonitrile] | < 100 |
| COc1c(C#N)ccc(OC(C)C(F)(F)F)c1C(=O)N1CC(c2cc(F)cc(F)c2)C1 (stereo not drawn) [Example 100, 3-{[3-(3,5-Difluorophenyl)azetidin-1-yl]carbonyl}-2-methoxy-4-[(1,1,1-trifluoropropan-2-yl)oxy]benzonitrile] | 100 to 1000 |
| COc1c(C#N)ccc(OC(C)C(F)(F)F)c1C(=O)N1CC(Oc2cccnc2)C1 (stereo not drawn) [Example 102, 2-Methoxy-3-{[3-(pyridin-3-yloxy)azetidin-1-yl]carbonyl}-4-[(1,1,1-trifluoropropan-2-yl)oxy]benzonitrile] | 100 to 1000 |
| CC(Oc1ccc(C#N)c(Cl)c1C(=O)N1CC(Oc2cccnc2)C1)C(F)(F)F (stereo not drawn) [Example 103, 2-Chloro-3-{[3-(pyridin-3-yloxy)azetidin-1-yl]carbonyl}-4-[(1,1,1-trifluoropropan-2-yl)oxy]benzonitrile] | < 100 |
| COc1c(C#N)ccc(C2(F)CCC2)c1C(=O)N1CC(c2ccc(C#N)cc2)C1 [Example 104, 3-{[3-(4-Cyanophenyl)azetidin-1-yl]carbonyl}-4-(1-fluorocyclobutyl)-2-methoxybenzonitrile] | 100 to 1000 |
| N#Cc1ccc(OCC(F)(F)F)c(C(=O)N2CC(c3ccc(C(F)(F)F)cc3)C2)c1Cl [Example 105, 2-Chloro-4-(2,2,2-trifluoroethoxy)-3-({3-[4-(trifluoromethyl)phenyl]azetidin-1-yl}carbonyl)benzonitrile] | 100 to 1000 |
| N#Cc1ccc(C2CN(C(=O)c3c(OCC(F)(F)F)ccc(C#N)c3Cl)C2)cc1 [Example 106, 2-Chloro-3-{[3-(4-cyanophenyl)azetidin-1-yl]carbonyl}-4-(2,2,2-trifluoroethoxy)benzonitrile] | < 100 |
| C[C@H](Oc1ccc(C#N)c(Cl)c1C(=O)N1CC(c2ccc(C(F)(F)F)cc2)C1)C(F)(F)F [Example 107, 2-Chloro-3-({3-[4-(trifluoromethyl)phenyl]azetidin-1-yl}carbonyl)-4-{[(2S)-1,1,1-trifluoropropan-2-yl]oxy}benzonitrile] | < 100 |
| Cc1cncc(C2CN(C(=O)c3c(OC(C)C(F)(F)F)ccc(C#N)c3Cl)C2)c1 (stereo not drawn) [Example 110, 2-Chloro-3-{[3-(5-methylpyridin-3-yl)azetidin-1-yl]carbonyl}-4-[(1,1,1-trifluoropropan-2-yl)oxy]benzonitrile] | 100 to 1000 |
| CC(Oc1ccc(C#N)c(Cl)c1C(=O)N1CC(c2ccc(C(F)(F)F)nc2)C1)C(F)(F)F (stereo not drawn) [Example 112, 2-Chloro-3-({3-[6-(trifluoromethyl)pyridin-3-yl]azetidin-1-yl}carbonyl)-4-[(1,1,1-trifluoropropan-2-yl)oxy]benzonitrile] | < 100 |
| COc1c(C#N)ccc(OC(C)C(F)(F)F)c1C(=O)N1CC(c2ccc(C(F)(F)F)nc2)C1 (stereo not drawn) [Example 113, 2-Methoxy-3-({3-[6-(trifluoromethyl)pyridin-3-yl]azetidin-1-yl}carbonyl)-4-[(1,1,1-trifluoropropan-2-yl)oxy]benzonitrile] | < 100 |
| COc1c(C#N)ccc(O[C@@H](C)C(F)(F)F)c1C(=O)N1CC(c2ncc(C(F)(F)F)cc2Cl)C1 [Example 114, 3-({3-[3-Chloro-5-(trifluoromethyl)pyridin-2-yl]azetidin-1-yl}carbonyl)-2-methoxy-4-{[(2S)-1,1,1-trifluoropropan-2-yl]oxy}benzonitrile] | 100 to 1000 |

The remaining lines, values ahead:

| IC50 [nM] | Compound |
| --- | --- |
| < 100 | COc1c(C#N)ccc(OC(C)C(F)(F)F)c1C(=O)N1CC(c2ccc(F)cc2)C1 (stereo not drawn) [Example 91, 3-{[3-(4-Fluorophenyl)azetidin-1-yl]carbonyl}-2-methoxy-4-[(1,1,1-trifluoropropan-2-yl)oxy]benzonitrile] |
| 100 to 1000 | COc1c(C#N)ccc(OC(C)C(F)(F)F)c1C(=O)N1CC(c2ccccc2F)C1 (stereo not drawn) [Example 92, 3-{[3-(2-Fluorophenyl)azetidin-1-yl]carbonyl}-2-methoxy-4-[(1,1,1-trifluoropropan-2-yl)oxy]benzonitrile] |
| 100 to 1000 | COc1c(C#N)ccc(OC(C)C(F)(F)F)c1C(=O)N1CC(c2ccc(C#N)cc2)C1 (stereo not drawn) [Example 95, 3-{[3-(4-Cyanophenyl)azetidin-1-yl]carbonyl}-2-methoxy-4-[(1,1,1-trifluoropropan-2-yl)oxy]benzonitrile] |
| < 100 | COc1ccc(C2CN(C(=O)c3c(OC(C)C(F)(F)F)ccc(C#N)c3OC)C2)cc1 (stereo not drawn) [Example 96, 2-Methoxy-3-{[3-(4-methoxyphenyl)azetidin-1-yl]carbonyl}-4-[(1,1,1-trifluoropropan-2-yl)oxy]benzonitrile] |
| 100 to 1000 | COc1c(C#N)ccc(OC(C)C(F)(F)F)c1C(=O)N1CC(c2ccc(Cl)cc2)C1 (stereo not drawn) [Example 97, 3-{[3-(4-Chlorophenyl)azetidin-1-yl]carbonyl}-2-methoxy-4-[(1,1,1-trifluoropropan-2-yl)oxy]benzonitrile] |
| 100 to 1000 | COc1c(C#N)ccc(OC(C)C(F)(F)F)c1C(=O)N1CC(c2ccc(C(F)(F)F)cc2)C1 (stereo not drawn) [Example 98, 2-Methoxy-3-({3-[4-(trifluoromethyl)phenyl]azetidin-1-yl}carbonyl)-4-[(1,1,1-trifluoropropan-2-yl)oxy]benzonitrile] |
| < 100 | COc1c(C#N)ccc(OC(C)C(F)(F)F)c1C(=O)N1CC(c2ccc(F)c(F)c2)C1 (stereo not drawn) [Example 101, 3-{[3-(3,4-Difluorophenyl)azetidin-1-yl]carbonyl}-2-methoxy-4-[(1,1,1-trifluoropropan-2-yl)oxy]benzonitrile] |
| 1000 to 10000 | COc1c(C#N)ccc(O[C@@H](C)C(F)(F)F)c1C(=O)N1CC(c2ccc(C#N)cc2)C1 [Example 108, 3-{[3-(4-Cyanophenyl)azetidin-1-yl]carbonyl}-2-methoxy-4-{[(2S)-1,1,1-trifluoropropan-2-yl]oxy}benzonitrile] |
| 100 to 1000 | C[C@H](Oc1ccc(C#N)c(Cl)c1C(=O)N1CC(c2ccc(C#N)cc2)C1)C(F)(F)F [Example 109, 2-Chloro-3-{[3-(4-cyanophenyl)azetidin-1-yl]carbonyl}-4-{[(2S)-1,1,1-trifluoropropan-2-yl]oxy}benzonitrile] |
| 100 to 1000 | COc1c(C#N)ccc(OC(C)C(F)(F)F)c1C(=O)N1CC(c2cncc(C)c2)C1 (stereo not drawn) [Example 111, 2-Methoxy-3-{[3-(5-methylpyridin-3-yl)azetidin-1-yl]carbonyl}-4-[(1,1,1-trifluoropropan-2-yl)oxy]benzonitrile] |
